Measurements: US20190212343A1, “METHODS FOR THE TREATMENT OF DISORDERS RELATED TO PHOSPHORYLATION OF HISTONES” (H. LEE MOFFITT CANCER CENTER AND RESEARCH INSTITUTE, INC., priority 2014, published 2019)
“Also recorded” adds a separate entry of the source.

Tests used:
[1] = system: pY88-H4 epigenetic marks in AR gene; test: ChIP with pY88-H4 antibodies and real time PCR at the AR gene; format: cell-based, human; details: LNCaP and VCaP cells grown in the absence of androgen
Method: FIGS. 10A-10C show H4 Y88-phosphorylation occurs within and downstream of AR gene. (FIG. 10A) The human AR gene and two pY88-H4 binding sites are shown. (FIG. 10B) VCaP and (FIG. 10C) LNCaP cells treated with ACK1 inhibitor; ChIP was performed followed by qPCR using primers corresponding to promoter, intron 2, 3′UTR or control region. VCaP: *p<0.05, **p<0.05; LNCaP: *p<0.05, **p<0.05
To determine whether ACK1 modifies chromatin at AR gene locus, LNCaP and VCaP cells grown in the absence of androgen and were treated with AIM-100. Chromatin immunoprecipitation (ChIP) was performed using pY88-H4 antibodies, followed by real time PCR with primers corresponding to the AR promoter, intron 2 and 3′UTR (FIG. 10A). […] These marks were also deposited at 3′UTR of the AR gene but not at the promoter region (FIGS. 10B and 10C).

AR mRNA = AR mRNA levels in androgen-deprived prostate cancer cells (qPCR with AR primers); format: cell-based, human; details: androgen-deprived LAPC4 and LNCaP cells, overnight treatment
[2] = system: histone H3 Tyr99-phosphorylation (ACK1); test: Histone H3 Tyr99-phosphorylation in HEK293 cells (pY99-H3 immunoprecipitation / H3 immunoblot); format: cell-based; details: HEK293 cells
Method: FIGS. 3A-3E show Ack1 phosphoryltes H3 at Tyr99 residue. […] (FIG. 3B) HEK293 cells co-expressing Myc-tagged Ack1 (WT) or KD mutant ACK1 and FLAG-tagged H3 or Y99F mutant […] were serum-starved (24h) and lysates were immunoprecipitated with pY99-H3 antibodies followed by immunoblotting with FLAG antibody (top panel). (FIG. 3C) HEK293 cells were treated with EGF ligand for indicated time points. Equal amounts of lysates were immunoprecipitated pY99-H3 antibodies followed by with immunoblotting with H3 antibody (top panel). (FIG. 3D) HEK293 cells were treated with ACK1 inhibitor, AIM-100 (5 uM overnight) and/or EGF ligand 20 min. Equal amounts of lysates were immunoprecipitated pY99-H3 antibodies followed by with immunoblotting with H3 antibody (top panel). […] (FIG. 3E) HEK293 cells were treated with increasing concentrations of AIM-100 (1, 2, 3 and 5 μM). Equal amounts of lysates were immunoprecipitated pY99-H3 antibodies followed by with immunoblotting with H3 antibody (top panel).
The Tyrosine99 or Y99 site in H3 protein is evolutionarily conserved (FIG. 3A). To examine whether H3 is ACK1 kinase substrate, HEK293 cells were co-transfected with HA-tagged ACK1 and FLAG-tagged H3 or FLAG-tagged Y99F mutant H3 expressing constructs. ACK I specifically phosphorylated H3 protein, but not the Y99F mutant protein (FIG. 3B). […]

AR protein levels = AR protein levels in androgen deprived prostate cancer cells (immunoblotting); format: cell-based, human; details: androgen deprived LNCaP and VCaP cells, 2.5, 5 and 10 uM
Method: (FIG. 6A) Androgen starved LAPC4 cells were treated with DHT (10 nM, 16 Hrs), AIM-100, DZI-067, Enzalutamide or PLX4032 (7 uM, 36 Hr) and AR, pACK1 and Actin levels were determined by immunoblotting (IB). The relative level of AR is shown below. (FIG. 6B) Androgen deprived LNCaP and VCaP cell were untreated or treated with 2.5, 5 and 10 uM of AIM-100 and lysates were immunoblotted. The quantitation of AR expression is shown. (FIG. 6C) Androgen deprived LNCaP and VCaP cell were untreated or treated with 2.5, 5 and 10 uM of DZI-067 and lysates were immunoblotted. The quantitation of AR expression is shown. (FIG. 6D) LNCaP cells were transfected with control and Ack1 siRNAs followed by immunoblotting. (FIG. 6E) LNCaP cells treated with AIM-100 (7 uM, 16 hr) or MG 132 (10 uM, 6 hr) were immunoblotted with AR antibodies. […]
AR has been known to interact with an ubiquitin E3 ligase, RNF6, causing AR ubiquitination, which in turn promoted AR transcriptional activity (Xu, K. et al. (2009) Cancer Cell 15(4):270-282). To determine whether post-translational modification has role to play in suppression of AR levels upon Ack1 kinase inhibition, LNCaP cells were treated with proteosomal inhibitor, MG-132 and AR levels were measured in presence or absence of AIM-100.

c1ccc(-c2oc3ncnc(NC[C@@H]4CCCO4)c3c2-c2ccccc2)cc1 [AIM-100]
pY88-H4 epigenetic marks at AR gene (intron 2, 3′UTR) [1]: erased | AR mRNA levels (AR mRNA): significantly suppressed | concentration resulting in complete loss of pY99-H3 ([2]; increasing concentrations of inhibitor): 0.5 μM | histone H3 Tyr99-phosphorylation ([2]; inhibitor 5 uM overnight, EGF ligand 20 min): complete loss of histone H3 Tyr99-phosphorylation; also recorded: suppressed histone H3 Tyr99-phosphorylation | AR protein levels (AR protein levels): concomitant decrease in AR protein levels
